Results taken from ChEMBL document CHEMBL1149456, “Substituted 4-hydroxyphenyl sulfonamides as pathway-selective estrogen receptor ligands” (Bioorg Med Chem Lett, 2006).

Legend:
[1] = target: T1, Estrogen receptor (Homo sapiens, UniProt P03372); assay: Inhibition of binding to ER in Ad5-wt-ER-infected HAECT1 cells by NF-kappaB-mediated luciferase reporter; format: functional, cell-based
T1 sequence (P03372 whole entry): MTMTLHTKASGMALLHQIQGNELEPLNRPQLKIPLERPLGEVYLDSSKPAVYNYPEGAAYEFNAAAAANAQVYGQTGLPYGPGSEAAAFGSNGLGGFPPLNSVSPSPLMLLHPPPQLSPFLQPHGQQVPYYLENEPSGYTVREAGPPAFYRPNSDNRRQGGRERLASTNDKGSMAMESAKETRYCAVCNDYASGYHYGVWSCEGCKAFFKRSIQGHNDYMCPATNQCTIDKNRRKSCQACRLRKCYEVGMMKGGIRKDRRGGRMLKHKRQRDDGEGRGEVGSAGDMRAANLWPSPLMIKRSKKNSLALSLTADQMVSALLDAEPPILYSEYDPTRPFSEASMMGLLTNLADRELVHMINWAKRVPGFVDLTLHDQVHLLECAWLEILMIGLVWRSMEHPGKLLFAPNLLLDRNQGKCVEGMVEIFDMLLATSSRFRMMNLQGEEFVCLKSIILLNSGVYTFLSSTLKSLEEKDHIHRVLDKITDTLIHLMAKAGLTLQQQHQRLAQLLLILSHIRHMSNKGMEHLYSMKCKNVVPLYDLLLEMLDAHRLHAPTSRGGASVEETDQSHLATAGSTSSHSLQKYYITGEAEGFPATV

[2] = target: T1, Estrogen receptor; assay: Effect on binding to ER in Ad5-wt-ER-infected HAECT1 cells by creatine kinase expression; format: functional, cell-based

CCN(c1ccccc1)S(=O)(=O)c1ccc(O)c(C)c1
IC50 ([1]; read-out: IC50): 328 nM | EC50 ([2]; read-out: EC50): 2140 nM

CCCN(c1ccccc1Br)S(=O)(=O)c1ccc(O)cc1
IC50 ([1]; read-out: IC50): 26 nM | EC50 ([2]; read-out: EC50): 151 nM

CCCN(c1ccccc1)S(=O)(=O)c1ccc(O)cc1
IC50 ([1]; read-out: IC50): 303 nM | EC50 ([2]; read-out: EC50): 1430 nM

CCCN(c1ccccc1Cl)S(=O)(=O)c1ccc(O)c(C)c1
IC50 ([1]; read-out: IC50): 51 nM | EC50 ([2]; read-out: EC50): 650 nM

O=S(=O)(c1ccc(O)cc1)N(c1ccccc1)C1CCCCC1
IC50 ([1]; read-out: IC50): 866 nM | EC50 ([2]; read-out: EC50): 534 nM

CCN(c1ccccc1Br)S(=O)(=O)c1ccc(O)cc1
IC50 ([1]; read-out: IC50): 90 nM | EC50 ([2]; read-out: EC50): 378 nM

CCCN(c1ccccc1C(F)(F)F)S(=O)(=O)c1ccc(O)cc1
IC50 ([1]; read-out: IC50): 54 nM | EC50 ([2]; read-out: EC50): 243 nM

O=S(=O)(c1ccc(O)cc1)N(c1ccccc1)c1ccccc1
IC50 ([1]; read-out: IC50): 410 nM | EC50 ([2]; read-out: EC50): 1540 nM

CCN(c1ccccc1OC)S(=O)(=O)c1ccc(O)cc1
IC50 ([1]; read-out: IC50): 830 nM | EC50 ([2]; read-out: EC50): 2170 nM

O=S(=O)(Nc1ccccc1)c1ccc(O)cc1
IC50 ([1]; haect1): Not Active

CCN(c1ccc(O)cc1)S(=O)(=O)c1ccc(O)cc1
IC50 ([1]; read-out: IC50): 272 nM | EC50 ([2]; read-out: EC50): 1390 nM

CCCN(c1c(C)cccc1Cl)S(=O)(=O)c1ccc(O)c(C)c1
IC50 ([1]; read-out: IC50): 26 nM | EC50 ([2]; read-out: EC50): 153 nM

CCCN(c1c(C)cccc1C)S(=O)(=O)c1ccc(O)c(C)c1
IC50 ([1]; read-out: IC50): 14 nM | EC50 ([2]; read-out: EC50): 75 nM

O=S1(=O)c2ccc(O)cc2CCN1c1ccccc1Cl
IC50 ([1]; read-out: IC50): 892 nM | EC50 ([2]; haect1): Not Active

CCCN(c1c(C)cccc1Cl)S(=O)(=O)c1ccc(O)cc1
IC50 ([1]; read-out: IC50): 24 nM | EC50 ([2]; read-out: EC50): 63 nM

CCCN(c1c(CC)cccc1CC)S(=O)(=O)c1ccc(O)c(C)c1
IC50 ([1]; read-out: IC50): 5 nM | EC50 ([2]; read-out: EC50): 213 nM

CCCN(c1ccccc1Br)S(=O)(=O)c1ccc(O)c(C(F)(F)F)c1
IC50 ([1]; read-out: IC50): 60 nM | EC50 ([2]; haect1): Not Active

O=S(=O)(c1ccc(O)cc1)N1CCCc2ccccc21
IC50 ([1]; haect1): Not Active

O=S(=O)(c1ccc(O)cc1)N(CCO)c1ccccc1
IC50 ([1]; haect1): Not Active

CCN(c1ccccc1)S(=O)(=O)c1ccc(O)cc1
IC50 ([1]; read-out: IC50): 404 nM | EC50 ([2]; read-out: EC50): 1600 nM

CCCCN(c1ccccc1)S(=O)(=O)c1ccc(O)cc1
IC50 ([1]; read-out: IC50): 317 nM | EC50 ([2]; read-out: EC50): 705 nM

CCCN(c1ccccc1F)S(=O)(=O)c1ccc(O)cc1
IC50 ([1]; read-out: IC50): 74 nM | EC50 ([2]; read-out: EC50): 161 nM

CC(C)(C)CN(c1ccccc1)S(=O)(=O)c1ccc(O)cc1
IC50 ([1]; read-out: IC50): 1370 nM | EC50 ([2]; read-out: EC50): > 2500 nM

CCCN(c1c(C)cccc1CC)S(=O)(=O)c1ccc(O)c(C)c1
IC50 ([1]; read-out: IC50): 7 nM | EC50 ([2]; read-out: EC50): 12 nM

CCN(c1ccccc1)S(=O)(=O)c1ccc(O)c(OC)c1
IC50 ([1]; haect1): Not Active

CC(C)N(c1ccccc1)S(=O)(=O)c1ccc(O)cc1
IC50 ([1]; read-out: IC50): 871 nM | EC50 ([2]; read-out: EC50): 1990 nM

CCCN(c1ccccc1-c1ccccc1)S(=O)(=O)c1ccc(O)c(C)c1
IC50 ([1]; read-out: IC50): 253 nM | EC50 ([2]; read-out: EC50): > 2890 nM

CCN(c1ccc(OC)cc1)S(=O)(=O)c1ccc(O)cc1
IC50 ([1]; haect1): Not Active

C=CCN(c1ccccc1)S(=O)(=O)c1ccc(O)cc1
IC50 ([1]; read-out: IC50): 235 nM | EC50 ([2]; read-out: EC50): 599 nM

CC1CCc2ccccc2N1S(=O)(=O)c1ccc(O)cc1 (stereo not drawn)
IC50 ([1]; read-out: IC50): 479 nM | EC50 ([2]; read-out: EC50): > 1000 nM

CCCN(c1c(Cl)cccc1Cl)S(=O)(=O)c1ccc(O)c(C)c1
IC50 ([1]; read-out: IC50): 16 nM | EC50 ([2]; read-out: EC50): 378 nM

CN(c1ccccc1)S(=O)(=O)c1ccc(O)cc1
IC50 ([1]; haect1): Not Active

CCCN(c1ccccc1Br)S(=O)(=O)c1ccc(O)c(C)c1
IC50 ([1]; read-out: IC50): 40 nM | EC50 ([2]; read-out: EC50): 480 nM

O=S(=O)(c1ccc(O)cc1)N(Cc1ccccc1)c1ccccc1
IC50 ([1]; read-out: IC50): 500 nM | EC50 ([2]; read-out: EC50): 242 nM

CCCN(c1ccccc1C)S(=O)(=O)c1ccc(O)c(C)c1
IC50 ([1]; read-out: IC50): 109 nM | EC50 ([2]; read-out: EC50): 923 nM

CCN(c1cccc(OC)c1)S(=O)(=O)c1ccc(O)cc1
IC50 ([1]; read-out: IC50): 1970 nM | EC50 ([2]; read-out: EC50): 830 nM

CCCN(c1ccccc1Cl)S(=O)(=O)c1ccc(O)cc1
IC50 ([1]; read-out: IC50): 42 nM | EC50 ([2]; read-out: EC50): 144 nM
